Experiments:
Assay type in all cases: in vivo
[1] = test system: Alopecurus myosuroides (ALOMY); experiment: Herbicidal pre-emergence action (A), 1280 g/ha; conditions: visual grading after ca. 3 weeks vs untreated controls, 100% = plants have died off, 0% = as control plants
In short: (§1)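 Visual grading of plant damage in percent (0% as untreated control, 100% dead) was done about 3 weeks after treatment. Compounds, as WP or EC in water with 0.5% additive, had been sprayed at 600 l/ha onto the covering soil of freshly sown sandy loam pots.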

[2] = test system: Amaranthus retroflexus (AMARE); experiment: Herbicidal pre-emergence action (A), 1280 g/ha; conditions: visual grading after ca. 3 weeks vs untreated controls
In short: as §1

[3] = test system: Digitaria sanguinalis (DIGSA); experiment: Herbicidal pre-emergence action (A), 1280 g/ha; conditions: visual grading after ca. 3 weeks vs untreated controls, 100% = plants have died off, 0% = as control plants
In short: as §1

[4] = test system: Echinochloa crus-galli (ECHCG); experiment: Herbicidal pre-emergence action (A), 1280 g/ha; conditions: visual grading after ca. 3 weeks vs untreated controls, 100% = plants have died off, 0% = as control plants
In short: as §1

[5] = test system: Kochia scoparia (KCHSC; Bassia scoparia); experiment: Herbicidal pre-emergence action (A), 1280 g/ha; conditions: visual grading after ca. 3 weeks vs untreated controls
In short: as §1

[6] = test system: Lolium rigidum (LOLRI); experiment: Herbicidal pre-emergence action (A), 1280 g/ha; conditions: visual grading after ca. 3 weeks vs untreated controls, 100% = plants have died off, 0% = as control plants
In short: as §1

[7] = test system: Matricaria inodora (MATIN); experiment: Herbicidal pre-emergence action (A), 1280 g/ha; conditions: visual grading after ca. 3 weeks vs untreated controls
In short: as §1

[8] = test system: Poa annua (POAAN); experiment: Herbicidal pre-emergence action (A), 1280 g/ha; conditions: visual grading after ca. 3 weeks vs untreated controls, 100% = plants have died off, 0% = as control plants
In short: as §1

[9] = test system: Setaria viridis (SETVI); experiment: Herbicidal pre-emergence action (A), 1280 g/ha; conditions: visual grading after ca. 3 weeks vs untreated controls
In short: as §1

[10] = test system: Stellaria media (STEME); experiment: Herbicidal pre-emergence action (A), 1280 g/ha; conditions: visual grading after ca. 3 weeks vs untreated controls
In short: as §1

[11] = test system: Veronica persica (VERPE); experiment: Herbicidal pre-emergence action (A), 1280 g/ha; conditions: visual grading after ca. 3 weeks vs untreated controls
In short: as §1

[12] = test system: Abutilon theophrasti (ABUTH); experiment: Herbicidal post-emergence action (B), 1280 g/ha; conditions: rated visually after about 3 weeks vs untreated controls
In short: (§2)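 Greenhouse-grown weeds at the one-leaf stage received a foliar spray of the formulated compound (WP or EC, 0.5% additive, 600 L/ha). Damage was scored visually after about 3 weeks on a 0–100% scale against untreated plants.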

[13] = test system: Alopecurus myosuroides (ALOMY); experiment: Herbicidal post-emergence action (B), 1280 g/ha; conditions: rated visually after about 3 weeks vs untreated controls
In short: as §2

[14] = test system: Amaranthus retroflexus (AMARE); experiment: Herbicidal post-emergence action (B), 1280 g/ha; conditions: rated visually after about 3 weeks vs untreated controls
In short: as §2

[15] = test system: Digitaria sanguinalis (DIGSA); experiment: Herbicidal post-emergence action (B), 1280 g/ha; conditions: rated visually after about 3 weeks vs untreated controls
In short: as §2

[16] = test system: Echinochloa crus-galli (ECHCG); experiment: Herbicidal post-emergence action (B), 1280 g/ha; conditions: rated visually after about 3 weeks vs untreated controls
In short: as §2

[17] = test system: Kochia scoparia (KCHSC; Bassia scoparia); experiment: Herbicidal post-emergence action (B), 1280 g/ha
In short: as §2

[18] = test system: Matricaria inodora (MATIN); experiment: Herbicidal post-emergence action (B), 1280 g/ha; conditions: rated visually after about 3 weeks vs untreated controls
In short: as §2

[19] = test system: Poa annua (POAAN); experiment: Herbicidal post-emergence action (B), 1280 g/ha; conditions: rated visually after about 3 weeks vs untreated controls
In short: as §2

[20] = test system: Setaria viridis (SETVI); experiment: Herbicidal post-emergence action (B), 1280 g/ha; conditions: rated visually after about 3 weeks vs untreated controls
In short: as §2

[21] = test system: Stellaria media (STEME); experiment: Herbicidal post-emergence action (B), 1280 g/ha
In short: as §2

[22] = test system: Veronica persica (VERPE); experiment: Herbicidal post-emergence action (B), 1280 g/ha
In short: as §2

[23] = test system: Alopecurus myosuroides (ALOMY); experiment: Herbicidal pre-emergence action (C), 320 g/ha; conditions: ca. 3 weeks
In short: (§3)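 Pre-emergence greenhouse test: visual damage rating at about 3 weeks relative to untreated plants, 100% meaning death and 0% no effect. Compounds, as wettable powders or emulsifiable concentrates with 0.5% additive, were applied at 320 g/ha (600 l water/ha) onto soil covering seeds sown in sandy loam.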

[24] = test system: Amaranthus retroflexus (AMARE); experiment: Herbicidal pre-emergence action (C), 320 g/ha; conditions: ca. 3 weeks
In short: as §3

[25] = test system: Echinochloa crus-galli (ECHCG); experiment: Herbicidal pre-emergence action (C), 320 g/ha; conditions: ca. 3 weeks
In short: as §3

[26] = test system: Lolium rigidum (LOLRI); experiment: Herbicidal pre-emergence action (C), 320 g/ha; conditions: ca. 3 weeks
In short: as §3

[27] = test system: Setaria viridis (SETVI); experiment: Herbicidal pre-emergence action (C), 320 g/ha; conditions: ca. 3 weeks
In short: as §3

[28] = test system: Digitaria sanguinalis (DIGSA); experiment: Herbicidal pre-emergence action (C), 320 g/ha; conditions: ca. 3 weeks
Excerpt: (§4) Seeds of mono- and dicotyledonous weed plants and crop plants were sown, in plastic or organic planting pots, in sandy loam and covered with soil. The compounds according to the invention, formulated in the form of wettable powders (WP) or as emulsifiable concentrates (EC), were applied to the surface of the covering soil as aqueous suspension or emulsion, with the addition of 0.5% of an additive, at an application rate of 600 l of water/ha (converted).
(§5) Following treatment, the pots were placed in a greenhouse and kept under optimum growth conditions for the test plants. The visual grading of the damage to the test plants was carried out after ca. 3 weeks in comparison to untreated controls (herbicidal effect in percent (%): 100% effect=plants have died off, 0% effect=as control plants).
(§6) Tables C1 to C13 below show the effects of selected compounds of the general formula (I) according to table 1 on various harmful plants and an application rate corresponding to 320 g/ha obtained by the experimental procedure mentioned above.

[29] = test system: Abutilon theophrasti (ABUTH); experiment: Herbicidal post-emergence action (D), 320 g/ha; conditions: ca. 3 weeks
In short: (§7)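 Seedlings reaching the single-leaf stage 2 to 3 weeks after sowing in sandy loam received a foliar spray of the formulated compound (WP or EC, 0.5% additive, 600 l water/ha). Damage is rated visually after about 3 weeks in the greenhouse as percent effect relative to untreated plants.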

[30] = test system: Alopecurus myosuroides (ALOMY); experiment: Herbicidal post-emergence action (D), 320 g/ha; conditions: ca. 3 weeks
In short: as §7

[31] = test system: Amaranthus retroflexus (AMARE); experiment: Herbicidal post-emergence action (D), 320 g/ha; conditions: ca. 3 weeks
In short: as §7

[32] = test system: Echinochloa crus-galli (ECHCG); experiment: Herbicidal post-emergence action (D), 320 g/ha; conditions: ca. 3 weeks
In short: as §7

[33] = test system: Abutilon theophrasti (ABUTH); experiment: Herbicidal pre-emergence action (C), 320 g/ha; conditions: ca. 3 weeks
In short: as §3

[34] = test system: Matricaria inodora (MATIN); experiment: Herbicidal pre-emergence action (C), 320 g/ha; conditions: ca. 3 weeks
In short: as §3

[35] = test system: Polygonum convolvulus (POLCO); experiment: Herbicidal pre-emergence action (C), 320 g/ha; conditions: ca. 3 weeks
In short: as §3

[36] = test system: Veronica persica (VERPE); experiment: Herbicidal pre-emergence action (C), 320 g/ha; conditions: ca. 3 weeks
In short: as §3

[37] = test system: Avena fatua; experiment: Herbicidal pre-emergence action (C), 320 g/ha; conditions: ca. 3 weeks
Excerpt: as §4, §5, §6

[38] = test system: Polygonum convolvulus (POLCO); experiment: Herbicidal post-emergence action (D), 320 g/ha; conditions: ca. 3 weeks
In short: as §7

[39] = test system: Setaria viridis (SETVI); experiment: Herbicidal post-emergence action (D), 320 g/ha; conditions: ca. 3 weeks
In short: as §7

[40] = test system: Veronica persica (VERPE); experiment: Herbicidal post-emergence action (D), 320 g/ha; conditions: ca. 3 weeks
In short: as §7

Row | Structure (SMILES) | herbicidal effect AMARE [2] [%] | DIGSA, herbicidal effect in percent (%) [3] [%] | herbicidal effect MATIN [7] [%] | POAAN, herbicidal effect in percent (%) [8] [%] | herbicidal effect SETVI [9] [%] | herbicidal effect STEME [10] [%] | herbicidal activity ABUTH [12] [%] | herbicidal activity ALOMY [13] [%] | herbicidal activity AMARE [14] [%] | herbicidal activity DIGSA [15] [%] | herbicidal activity ECHCG [16] [%] | herbicidal effect KCHSC [17] [%] | herbicidal activity MATIN [18] [%] | herbicidal activity POAAN [19] [%] | herbicidal activity SETVI [20] [%] | herbicidal effect STEME [21] [%] | herbicidal effect VERPE [22] [%] | herbicidal effect ALOMY [23] [%] | herbicidal effect AMARE [24] [%] | herbicidal effect ECHCG [25] [%] | other results
1 | c1ccc(-c2ccc3scnc3n2)cc1 [Example I-010] | 90 | 100 | 100 | 100 | 100 | 100 | 100 | 100 | 100 | 100 | 90 | 100 | 100 | 100 | 100 | 100 | 100 | 100 | 90 | 100 | ALOMY, herbicidal effect in percent (%) [1]: 100%; ECHCG, herbicidal effect in percent (%) [4]: 100%; herbicidal effect KCHSC [5]: 90%; LOLRI, herbicidal effect in percent (%) [6]: 100%; herbicidal effect VERPE [11]: 90%; herbicidal effect LOLRI [26]: 100%; herbicidal effect SETVI [27]: 100%; herbicidal effect DIGSA [28]: 100%; herbicidal effect ABUTH [29]: 80%; herbicidal effect ALOMY [30]: 90%; herbicidal effect AMARE [31]: 80%; herbicidal effect ECHCG [32]: 90%
2 | Fc1ccccc1-c1nc2ncsc2cc1Br [Example I-012] |  |  |  |  |  |  |  |  |  |  |  |  |  |  |  |  |  | 100 | 90 | 100 | herbicidal effect ABUTH [33]: 80%; herbicidal effect LOLRI [26]: 100%; herbicidal effect MATIN [34]: 90%; herbicidal effect POLCO [35]: 80%; herbicidal effect SETVI [27]: 100%; herbicidal effect VERPE [36]: 80%; herbicidal effect AVEFA [37]: 100%; herbicidal effect ALOMY [30]: 90%; herbicidal effect AMARE [31]: 90%; herbicidal effect ECHCG [32]: 80%; herbicidal effect POLCO [38]: 90%; herbicidal effect SETVI [39]: 90%
3 | CCc1cc2sc(OC)nc2nc1-c1ccccc1C [Example I-094] | 100 | 100 | 100 | 100 | 100 | 100 | 100 | 100 | 100 | 100 | 100 | 100 | 100 | 100 | 100 | 100 | 100 |  |  | 80 | herbicidal effect ABUTH [29]: 80%; herbicidal effect VERPE [40]: 90%

From patent publication US20230151025A1, “SUBSTITUTED THIAZOLOPYRIDINES, SALTS THEREOF AND THEIR USE AS HERBICIDALLY ACTIVE SUBSTANCES” (Bayer Aktiengesellschaft, priority 2020, published 2023)
